Assay results taken from US11905268B2, “Anthranilic acid derivatives and their use in the treatment of human cancers” (UNIVERSITY OF CENTRAL FLORIDA RESEARCH FOUNDATION, INC., priority 2018, dated 2024).
Where two headings read alike, the source gives them in different places.

How the values were obtained:
CHO cells [1] = assay: Ant44 rescue assay in CHO cells (Assay 1); type: cell-based, Chinese hamster; conditions: for IC50 / EC50: Cricetulus griseus; for IC50: CHO, Table 7, read-out: SAR IC50 Ant44 assay; for Ant44 EC50 / EC50: Table 1 HTS top hits; for Ant44 EC50 / EC50 / Ant44 EC40: CHO cells; for EC50: read-out: Ant44 EC50; for Ant44 EC40: Table 1
Experimental: CHO K1 cells were grown in growth medium (RPMI+10% FBS+1×P/S+1% l-glutamine) to 70% confluency, washed in PBS and trypsinized. Cells were plated in assay medium (serum free RPMI+2% FBS+1×l-glutamine+1×P/S+[…] aminoguanidine) at 50000 cells/mL for 200 cells per well in 4 ul using a Thermo Multidrop Combi into a 1536-well white Aurora plate.
Ant44 is a cytotoxic polyamine, i.e., N^1-(9-anthracenyl)-homospermidine. A non-toxic PTI compound would block entry or intracellular trafficking of the Ant44 toxin and rescue the cells back to high viability. Therefore, this screen tested for compounds which rescued cells from Ant44 toxicity. […] This was followed by adding 10 uL of 10 uM Ant44 (FAC 2 uM) in assay medium with a Beckman BioRAPTR FRD dispenser or 10 uL of cells added in assay medium (positive control).

[2] = tested on: DFMO treated Chinese hamster ovary (CHO) cells; assay: DFMO/spermidine rescue assay in CHO cells (Assay 2); type: cell-based; conditions: Cricetulus griseus
Experimental: In the reconfirmation assay compounds were run in quadruplicate. […] A PTI compound is expected to block the entry or disrupt the intracellular trafficking of spermidine and inhibit the ability of spermidine to rescue the growth or viability of DFMO treated cells.
DFMO/Spermidine assay Here cells were treated with an inhibitor of polyamine biosynthesis (DFMO) and rescued back to high viability by the presence of exogenous polyamine (spermidine). Putative PTI compounds were screened for their ability to block the entry or intracellular trafficking of exogenous spermidine (or otherwise disrupt the intracellular trafficking of spermidine) by measuring cell viability in the presence of DFMO+spermidine+PTI compound. […] This was followed by adding 10 μL of […] and 5 μM spermidine (FAC 5 mM DFMO and 1 μM spermidine) in assay medium with a Beckman BioRAPTR FRD dispenser or 10 μL of 5 mM DFMO added in assay medium (positive control). […] A PTI compound is expected to block the entry or disrupt the intracellular trafficking of spermidine and inhibit the ability of spermidine to rescue the growth or viability of DFMO treated cells Cytotoxicity

CHO cells [3] = assay: Cytotoxicity screen in CHO cells; conditions: for IC50 at 48 h: Chinese hamster, CHO K1 cells; for tox (DFMO Assay) / Tox (Ant44): toxic above the stated concentration, CHO cells; for tox (DFMO Assay): listed with DFMO assay; for Tox (Ant44): listed with Ant44 assay
Experimental: CHO K1 cells were grown in growth medium to 70% confluency and washed in PBS and trypsinized. […] Cells were spun at 100×g for 1 minute and incubated at 37° C. in a humidified CO2 incubator for 24 hours. […] Cellular ATP content was then assayed by adding 3 uL of ATPLite with a Beckman BioRAPTR FRD dispenser and incubated for 10 minutes at room temperature. Plates were spun at 200×g for 1 minute and read on a Perkin Elmer Viewlux multimode plate reader using luminescence mode. This assay was used for testing dose-response of dry powders.
CHO K1 cells were grown in growth medium to 70% confluency and washed in PBS and trypsinized. Cells were plated in assay medium at 10000 cells/mL for 200 cells per well using a Thermo Multidrop Combi in 20 uL into a white Greiner plate. Cells were spun at 100×g for 1 minute and incubated at 37° C. in a humidified CO2 incubator for 24 hours. […] This was followed by adding by 10 μL of assay medium to all wells with a Beckman BioRAPTR FRD dispenser. The plates were spun at 200×g for 1 minute and incubated at 37° C. in a humidified 5% CO2 incubator for 48 hours. Cellular ATP content was then assayed by adding 20 μL of ATPLite with a Beckman BioRAPTR FRD dispenser and incubated for 10 min at room temperature. Plates were spun at 200×g for 1 minute and read on a Perkin Elmer Envision for multimode plate reader using luminescence mode. Duplicates were run for each compound concentration, and the curves represent the average of the duplicates as percent viability.
The final compound concentration was either 20 μM or 10 μg/mL (depending upon the compound source). A successful PTI in Assay 1 would block the uptake of the toxic Ant44 probe and rescue the cells back to >90% relative growth vs an untreated control. It was critical to also evaluate the toxicity of the PTI by itself as a toxic PTI would give a false negative in Assay1 (and a false positive in Assay 2). […] Assay 2 then evaluated the ability of the compound to inhibit the uptake of a rescuing dose of Spermidine (Spd, 1 μM) into DFMO-treated CHO cells.

[4] = CHO, Table 7, read-out: SAR IC50 DFMO assay
[5] = Table 1 HTS top hits, CHO cells, read-out: DFMO Assay IC50

| SMILES | IC50 (CHO cells [1]) | Ant44 EC50 (CHO cells [1]) | IC50 [2, 4] | IC50 [2, 5] | IC50 at 48 h (CHO cells [3]) | tox (DFMO Assay) (CHO cells [3]) | EC50 (CHO cells [1]) | Tox (Ant44) (CHO cells [3]) | Ant44 EC40 (CHO cells [1]) | IC50 (CHO cells [3]; Cricetulus griseus, CHO, 48 h, read-out: 48 h IC50) |
| --- | --- | --- | --- | --- | --- | --- | --- | --- | --- | --- |
| Cc1ccc(C(=O)Nc2ccc(N3CCN(c4cc(Cl)ccc4C)CC3)c(C(=O)O)c2)cc1 [SBI-0800669] | > 40 µM | SBI- 0800669.0001 No effect | 5 µM | 2 to 5 µM | 12 µM | > 10 µM |  |  |  |  |
| COc1ccc(C(=O)Nc2ccc(N3CCN(c4cc(Cl)ccc4C)CC3)c(C(=O)O)c2)cc1 [SBI-0800662] | > 40 µM | SBI- 0800662.0001 No effect | 5 µM | ~5 µM | 14 µM |  |  |  |  |  |
| COc1ccccc1C(=O)Nc1ccc(N2CCN(c3cc(Cl)ccc3C)CC2)cc1C(=O)O [SBI-0351221, 5-(4-(5-chloro-2-methylphenyl)piperazin-1-yl)-2-(2-methoxybenzamido)benzoic acid] | 2 µM |  | 21 µM | ~10 µM | 19 µM | SBI- 0351221.0002 (IC50 ~10), toxic >10 μM | 10 µM | SBI- 0351221.0002 (10 EC50) Tox >10 μM |  |  |
| COc1ccc(S(=O)(=O)Nc2ccc(N3CCN(c4cc(Cl)ccc4C)CC3)cc2C(=O)O)cc1 [SBI-0801326, 5-(4-(5-chloro-2-methylphenyl)piperazin-1-yl)-2-(4-methoxyphenylsulfonamido)benzoic acid] | > 40 µM |  | > 40 µM |  | > 40 µM |  |  |  |  |  |
| COC(=O)c1cc(N2CCN(c3cc(Cl)ccc3C)CC2)ccc1NC(=O)c1ccc(OC)cc1OC [SBI-0801723, methyl 5-(4-(5-chloro-2-methylphenyl)piperazin-1-yl)-2-(2,4-dimethoxybenzamido)benzoate] | > 40 µM |  | > 40 µM |  | > 40 µM |  |  |  |  |  |
| CCOC(=O)N1CCN(c2ccc(NC(=O)c3ccc(OC)cc3)c(C(=O)O)c2)CC1 [SBI-0800692] | > 40 µM |  | > 40 µM | ~20 µM | 34 µM | SBI- 0800692.0001 (IC50 ~20, tox >20) μM |  |  | SBI- 0800692.0001 (EC40 at 31) μM |  |
| COc1ccc(CC(=O)Nc2ccc(N3CCN(c4cc(Cl)ccc4C)CC3)cc2C(=O)O)cc1 [SBI-0754480] | 32 µM |  |  | 5 to 10 µM | 24 µM | > 20 µM | 31 µM |  |  |  |
| COc1ccc(C(=O)Nc2ccc(N3CCN(c4ccccc4Cl)CC3)cc2C(=O)O)cc1 [SBI-0800682] | > 40 µM |  | 27 µM | 10 to 15 µM | 28 µM | > 10 µM |  | > 20 µM | ~15 µM |  |
| COC(=O)c1cc(N2CCN(c3cc(Cl)ccc3C)CC2)ccc1NC(=O)c1ccc(OC)cc1 [SBI-0801722, methyl 5-(4-(5-chloro-2-methylphenyl)piperazin-1-yl)-2-(4-methoxybenzamido)benzoate] | > 40 µM |  | > 40 µM |  | > 40 µM |  |  |  |  |  |
| NCCC[C@](N)(C(=O)O)C(F)F [DFMO, alpha-difluoromethylornithine, reference compound] |  |  |  |  |  |  |  |  |  | 4200 µM |
| COc1ccc(C(=O)Nc2ccc(N3CCC(N4CCCCC4)CC3)cc2C(=O)O)cc1 [SBI-0800694] |  |  | > 40 µM |  | > 40 µM |  |  |  |  |  |
| Cc1ccc(C)c(N2CCN(c3ccc(N4C(=O)CC(c5ccccc5)C4=O)cc3[N+](=O)[O-])CC2)c1 (stereo not shown) [SBI-0372958] |  |  | 27 µM |  | 32 µM |  |  |  |  |  |
| Cc1cccc(N2CCN(c3ccc(NC(=O)c4ccccc4F)cc3C(=O)O)CC2C)c1 (stereo not shown) [SBI-0800663] |  |  | > 40 µM |  | > 40 µM |  |  |  |  |  |
